Assay results published in patent US9872858B2, “Treatment of degenerations and light-induced damage to the retina” (BIOCODEX, priority 2014, dated 2018).
Read-outs that look alike come from different tables or passages of the source.

How the values were obtained:
[1] = tested on: blue light-induced retinal degenerations or damages in rats; assay: Scotopic electroretinogram (amplitude of wave a) after blue light-induced retinal degeneration; type: in vivo, Sprague-Dawley albino male rats
Procedure: (§1) This animal model is particularly representative, in addition to light-induced retinal damage, of age-related macular degeneration (AMD) and retinitis pigmentosa (see e.g Feng et al. (2012) International Journal of Ophthalmology 5:151-157).
72 Sprague-Dawley albino male rats obtained from Janvier were used for the study. When received, the rats were approximately 7 weeks old and weighed 180-200 g,
(§2) Induction was performed by exposure during 6 hours to a blue fluorescent light of 400 nm-540 nm wavelength in individual cages. The rats were kept in the dark for 36 hours prior to the induction and 24 hours after the induction, before returning to normal lighting conditions.
A scotopic electroretinogram (ERG) was performed by using the electrophysiological RETI-animal® (Roland Consult) system before the first administration (base) then on days 7 and 14 on both eyes of animals accustomed to the darkness. The animals were anesthetized with an intramuscular injection of a mixture of ketamine/xylazine. 15 minutes before the measurement, 1 drop of Mydriatictum® (0.5% tropicamide) was instilled to induce dilatation of the pupil. The amplitudes of wave a and wave b were measured for each eye and expressed as a percentage of the base amplitudes.
The ERG parameters are: • Gansfeld Q450C • Color: maximum white • Maximum intensity: 2.6 cd.s/m^2 (0 dB); duration: 0.24 ms; number of flashes: 1 • Filter: 50 Hz • Impedance threshold: 90 kΩ
A two-factor ANOVA test was applied to the average amplitudes of the wave a of both eyes for each measurement point. The effect of the products was determined using the Turkey's multiple comparison test; each group was compared to other groups. Differences were considered significant for p values less than 0.05.
Electroretinograms (ERG) allow to measure the amplitude of wave a, which results from the photo-activated hyperpolarization of photoreceptors. Thus, a reduction of the amplitude of wave a is an indicator of a retinal damage or degeneration associated with exposure to blue light.

[2] = tested on: blue light-induced retinal degenerations or damages in rats; assay: Thickness of the outer nuclear layer (histology, AUC) after blue light-induced retinal degeneration; type: in vivo, Sprague-Dawley albino male rats
Procedure: as §1, with “The inventors have studied the protective effect of etifoxine in respect of the blue light-induced retinal degenerations or damages in rats. This” for “This”
as §2
After ERG (day 14), the animals were euthanized with an overdose of pentobarbital, according to European recommendations, both eyes were enucleated, fixed with Bouin Hollande solution and then included in paraffin. Sections of 5 to 7 μm of thickness were made along the vertical meridian then stained using Masson's trichrome. The vertical meridian includes the optic nerve. […] The area under the curve (AUC) was then calculated for each retina.
A one-factor ANOVA test was applied to the average AUCs of the thickness of the outer nuclear layer. The effect of the products was determined using a Turkey's multiple comparison test; each treated group was compared to vehicle group. Differences were considered significant for p values less than 0.05.
To determine if the treatment allows to preserve the structure of photoreceptors, the thickness of the outer nuclear layer was evaluated 14 days other exposure to blue light. The area under the curve (AUC) of the thickness of the outer nuclear layer was calculated for each eye and both AUCs were averaged for each rat.

[3] = tested on: light-induced degeneration of the retina in rats; details: intraperitoneal injection (Ranchon et al. 2001); cited from earlier work
[4] = Animals behavior and body weight; type: in vivo, Sprague-Dawley albino male rats; details: etifoxine 12.5-50 mg/kg i.p. once a day D-7 to D0
Excerpt: The rats were kept under observation for 3 weeks after their arrival for acclimatization. Meanwhile the animals were observed daily for verifying the absence of a disease.
II.1. Animals Behavior and Body Weight

[5] = tested on: patients suffering from neovascular (exudative) AMD; details: cited from earlier work

For `CC(C)(C)[N+]([O-])=Cc1ccccc1` [PBN, Phenyl-N-tert-butylnitrone], the “Amplitude of wave a (mean ± standard deviation), Day 7” value ([1]; PBN 50 mg/kg i.p. at D0, 0.5 h before, 2 h and 4 h during and just after induction, 7 days after induction) was 334 ± 137 μV, the “Average relative amplitude of wave a, Day 7” value ([1]; PBN 50 mg/kg i.p. at D0 around induction, 7 days after induction, percentage of base amplitude) was 71 ± 29% and the “Amplitude of wave a (mean ± standard deviation), Day 14” value ([1]; PBN 50 mg/kg i.p. at D0 around induction, 14 days after induction) was 301 ± 187 μV. For the same molecule, the “Average relative amplitude of wave a, Day 14” value ([1]; PBN 50 mg/kg i.p. at D0 around induction, 14 days after induction, percentage of base amplitude) was 62 ± 38%, the “Amplitudes of wave a compared to the NaCl 0.9% group” value ([1]; PBN 50 mg/kg, days 7 and 14, p<0.0001) was “significantly (p<0.0001) higher” and the “Thickness of the outer nuclear layer (AUC, mean of both eyes ± standard deviation)” value ([2]; PBN 50 mg/kg i.p. at D0 around induction, 14 days after induction, p < 0.0001 vs NaCl 0.9% group) was 247 ± 44 (p < 0.0001 comparing to NaCl 0.9% group) μm × mm. The “Protection of the outer nuclear layer from damages or degenerations induced by blue light” value ([2]; PBN 50 mg/kg, positive control, in contrast to 0.9% NaCl) was “protects the outer nuclear layer” and the “Action in light-induced degeneration of the retina” value [3] was “protective action”.

In the case of `CCNC1=Nc2ccc(Cl)cc2C(C)(c2ccccc2)O1.Cl` (centres unmarked) [EFX, 6-chloro-2-ethylamino-4-methyl-4-phenyl-4H-[3,1]benzoxazine hydrochloride], the “Clinical signs after administration” value [4] is reported as “No unexpected clinical signs”, the “Protection of amplitude of wave a compared to the vehicle group” value ([1]; 12.5, 25 and 50 mg/kg, day 7 p<0.0001 all doses, day 14 p=0,016 for 12.5 mg/kg, p<0.0001 for 25 and 50 mg/kg) is reported as “significant dose-dependent protection” and the “Amplitude of wave a (mean ± standard deviation), Day 7” value ([1]; EFX 12.5 mg/kg i.p. once a day D-7 to D0, 7 days after induction) is reported as 136 ± 89 μV. For the same molecule, the “Amplitude of wave a (mean ± standard deviation), Day 14” value ([1]; EFX 12.5 mg/kg i.p. once a day D-7 to D0, 14 days after induction) was 134 ± 135 μV, the “Amplitude of wave a (mean ± standard deviation), Day 7” value ([1]; EFX 25 mg/kg i.p. once a day D-7 to D0, 7 days after induction) was 210 ± 116 μV and the “Amplitude of wave a (mean ± standard deviation), Day 7” value ([1]; EFX 50 mg/kg i.p. once a day D-7 to D0, 7 days after induction) was 260 ± 87 μV. For the same molecule, the “Thickness of the outer nuclear layer (AUC, mean of both eyes ± standard deviation)” value ([2]; EFX 12.5 mg/kg i.p. once a day D-7 to D0, 14 days after induction, p = 0.04 vs vehicle group) was 170 ± 72 (p = 0.04 comparing to vehicle group) μm × mm, the “Thickness of the outer nuclear layer (AUC, mean of both eyes ± standard deviation)” value ([2]; EFX 25 mg/kg i.p. once a day D-7 to D0, 14 days after induction, p = 0.0002 vs vehicle group) was 200 ± 73 (p = 0.0002 comparing to vehicle group) μm × mm and the “Thickness of the outer nuclear layer (AUC, mean of both eyes ± standard deviation)” value ([2]; EFX 50 mg/kg i.p. once a day D-7 to D0, 14 days after induction, p = 0.035 vs vehicle group) was 172 ± 61 (p = 0.035 comparing to vehicle group) μm × mm. For the same molecule, the “Protection of the outer nuclear layer from damages or degenerations induced by blue light, compared to the vehicle” value ([2]; regardless of the dose (12.5, 25, 50 mg/kg), 14 days after induction) was “protects significantly”.

In the case of “ranibizumab: a Fab fragment of an anti-VEGF-A monoclonal antibody”, the Visual acuity improvement ([5]; 0.3 mg monthly intravitreal injections) is listed as “+8.1 letters” and the Visual acuity improvement ([5]; 0.5 mg monthly intravitreal injections) is listed as “+10.7 letters”.
